According to ChEMBL document CHEMBL3046493, “Alpha2-Adrenergic Receptors in Intestinal Epithelial Cells: Mechanisms of Signaling, Role, and Regulation” (Med Chem Res, 2004):

What follows are molecules tested against Nischarin (Rattus norvegicus, UniProt Q4G017) (assay: Binding affinity to I1 imidazoline binding site in Rattus norvegicus (rat) PC12 cells).
Format: cell-based, PC-12

Nischarin, sequence (Q4G017 whole entry): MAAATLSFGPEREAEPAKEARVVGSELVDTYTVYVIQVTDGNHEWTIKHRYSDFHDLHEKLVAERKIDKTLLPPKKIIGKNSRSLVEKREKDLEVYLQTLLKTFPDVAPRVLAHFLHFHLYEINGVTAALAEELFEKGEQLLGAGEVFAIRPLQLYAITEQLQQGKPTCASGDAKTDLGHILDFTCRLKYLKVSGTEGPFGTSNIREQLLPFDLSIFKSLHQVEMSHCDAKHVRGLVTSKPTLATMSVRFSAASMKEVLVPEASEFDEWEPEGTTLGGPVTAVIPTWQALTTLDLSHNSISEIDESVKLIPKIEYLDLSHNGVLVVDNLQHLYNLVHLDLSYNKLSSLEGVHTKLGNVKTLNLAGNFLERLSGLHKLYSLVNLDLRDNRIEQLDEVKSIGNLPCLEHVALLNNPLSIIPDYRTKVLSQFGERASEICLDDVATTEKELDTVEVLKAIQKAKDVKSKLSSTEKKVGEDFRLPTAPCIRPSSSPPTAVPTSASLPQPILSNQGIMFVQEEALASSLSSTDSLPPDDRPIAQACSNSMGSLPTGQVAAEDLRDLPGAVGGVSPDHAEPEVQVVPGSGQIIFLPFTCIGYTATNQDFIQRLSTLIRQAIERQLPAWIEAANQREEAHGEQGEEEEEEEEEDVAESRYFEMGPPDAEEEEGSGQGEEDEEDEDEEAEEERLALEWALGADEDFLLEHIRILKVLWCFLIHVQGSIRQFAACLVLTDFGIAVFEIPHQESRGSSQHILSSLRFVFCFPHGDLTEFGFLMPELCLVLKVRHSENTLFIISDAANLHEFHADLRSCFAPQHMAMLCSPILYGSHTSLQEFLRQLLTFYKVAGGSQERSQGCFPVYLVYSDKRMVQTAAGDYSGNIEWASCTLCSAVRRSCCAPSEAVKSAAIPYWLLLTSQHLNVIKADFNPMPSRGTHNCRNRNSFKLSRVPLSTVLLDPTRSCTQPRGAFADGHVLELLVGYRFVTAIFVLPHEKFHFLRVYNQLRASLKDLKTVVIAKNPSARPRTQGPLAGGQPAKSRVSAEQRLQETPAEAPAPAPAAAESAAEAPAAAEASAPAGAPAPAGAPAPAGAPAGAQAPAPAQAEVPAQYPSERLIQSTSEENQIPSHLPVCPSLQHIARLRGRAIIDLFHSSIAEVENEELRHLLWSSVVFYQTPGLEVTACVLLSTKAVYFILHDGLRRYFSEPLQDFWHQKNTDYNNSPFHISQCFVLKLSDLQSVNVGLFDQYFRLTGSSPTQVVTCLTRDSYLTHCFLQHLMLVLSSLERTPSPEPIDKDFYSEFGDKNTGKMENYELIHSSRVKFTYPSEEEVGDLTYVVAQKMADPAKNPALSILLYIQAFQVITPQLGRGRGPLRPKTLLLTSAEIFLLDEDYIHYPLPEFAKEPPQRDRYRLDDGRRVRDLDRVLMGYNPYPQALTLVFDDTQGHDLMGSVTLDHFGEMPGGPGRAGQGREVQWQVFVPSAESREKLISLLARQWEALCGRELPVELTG

Ki [nM] | Compound
6.92 | Clc1cccc2c1CN(NC1=NCCN1)C2
2.34 | c1ccc(-c2ccccc2OCC2=NCCN2)cc1
589 | C[C@H](CC1=NCCN1)c1ccccc1
7240 | C[C@@H](CC1=NCCN1)c1ccccc1
0.933 | c1ccc(-c2ccccc2NCC2=NCCN2)cc1
3090 | c1ccc(C(CC2=NCCN2)c2ccccc2)cc1
3240 | c1ccc(-c2ccccc2CCC2=NCCN2)cc1
1.29 | c1ccc2cc(C3=NCCN3)ccc2c1 [BENAZOLINE]
245 | c1ccc2c(CC3=NCCN3)cccc2c1 [NAPHAZOLINE]
0.501 | c1ccc(NCC2=NCCN2)cc1 [PHENAMAZOLINE]
3720 | c1ccc(CCC2=NCCN2)cc1 [PHENYZOLINE]
18.6 | C(=C\c1ccccc1)/C1=NCCN1 [TRACIZOLINE]

More lines, now with the values behind:

Compound | Ki [nM]
C[C@@H](Oc1ccccc1-c1ccccc1)C1=NCCN1 | 3.98
C1CN=C(NC(C2CC2)C2CC2)C1 | 513
C[C@H](Oc1ccccc1-c1ccccc1)C1=NCCN1 | 129
c1ccc([C@@H]2C[C@H]2C2=NCCN2)cc1 | 347
c1ccc([C@H]2C[C@@H]2C2=NCCN2)cc1 | 11.7
c1ccc(C2CC2)c(OCC2=NCCN2)c1 [CIRAZOLINE] | 1740
Clc1cccc(Cl)c1N=C1NCCN1 [CLONIDINE] | 112
Clc1cc(I)cc(Cl)c1N=C1NCCN1 [PI-CLONIDINE] | 0.0339
C1COC(NC(C2CC2)C2CC2)=N1 [RILMENIDINE] | 11.2
